Assay [1] deals with B. anthracis Sterne. Nature of the assay: microbe, parasite or virus in culture. It is filed as cell-based, Bacillus anthracis. As to conditions: for MIC: Bacillus anthracis, read-out: MIC B. anthracis Sterne.
The target in the next assay is B anthracis DHFR (Bacillus anthracis, UniProt Q81R22). Briefly: biochemical. The conditions noted are these: Ki ± SEM B anthracis DHFR.
Assay [2] deals with B. anthracis Sterne. As to conditions: cited from earlier work.

The structures appear in SMILES notation. pKi: −log10 of the molar value. ≈ marks a conversion by molar mass, not a printed value. Where two headings read alike, the source gives them in different places.

The source of these data is article PMC4278362 (Bioorganic & medicinal chemistry, 2014).

Chain of B anthracis DHFR (Q81R22 1-162): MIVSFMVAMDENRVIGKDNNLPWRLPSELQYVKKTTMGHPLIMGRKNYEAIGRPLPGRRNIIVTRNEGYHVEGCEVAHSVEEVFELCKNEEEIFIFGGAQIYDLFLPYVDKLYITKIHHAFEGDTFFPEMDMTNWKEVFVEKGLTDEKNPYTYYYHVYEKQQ

Take `CCCC1c2ccccc2C=NN1C(=O)/C=C/c1cc(Cc2cnc(N)nc2N)cc(OC(=O)c2ccccc2)c1OC` (racemic) [Compound 29, (±)-(E)-5-[(2,4-Diamino-5-pyrimidinyl)methyl]-2-methoxy-3-[3-oxo-3-(1-propyl-2(1H)-phthalazinyl)-1-propen-1-yl]phenyl benzoate]: in the assay on B. anthracis Sterne [1], the “MIC B. anthracis Sterne” value was 4 to 16 mg/L and the MIC was 2 to 16 mg/L (≈ 3.47 to 27.7 µM).
On to `CCOc1cc(Cc2cnc(N)nc2N)cc(/C=C/C(=O)N2N=Cc3ccccc3C2C=C(C)C)c1OCC` (racemic) [Compound 19b, (±)-(E)-3-{5-[(2,4-Diamino-5-pyrimidinyl)methyl]-2,3-diethoxyphenyl}-1-(1-isobutenyl-2(1H)-phthalazinyl)-2-propen-1-one], for which, in the assay on B. anthracis Sterne [1], the MIC was 1 to 2 mg/L (≈ 1.9 to 3.8 µM).
On to `CCCC1c2ccccc2C=NN1C(=O)/C=C/c1cc(Cc2cnc(N)nc2N)cc(OCc2ccc(C(F)(F)F)cc2)c1OC` (racemic) [Compound 34, (±)-(E)-3-{5-[(2,4-Diamino-5-pyrimidinyl)methyl]-2-methoxy-3-[(4-(trifluoromethyl)benzyl)oxy]phenyl}-1-(1-propyl-2(1H)-phthalazinyl)-2-propen-1-one], for which, on B anthracis DHFR, the pKi (usually the Ki on a negative log10 scale, so that one unit is a factor of ten) is less than 5.66.
On to `COc1cc(Cc2cnc(N)nc2N)cc(OC)c1OC` [TMP, Trimethoprim], for which the “MIC B. anthracis Sterne” value in the assay on B. anthracis Sterne [2] was greater than 2048 mg/L.
